In ChEMBL document CHEMBL3351292, “Structure-Based Design and Synthesis of Potent Cyclic Peptides Inhibiting the YAP-TEAD Protein-Protein Interaction” (ACS Med Chem Lett, 2014):
Where a SMILES comes first, the peptide text is derived from it. Bridges are numbered along the chain shown (N, C = ends). [ ]: non-standard residue; d: D form. hCys = N[C@@H](CCS)C(=O)O; Nle = CCCC[C@H](N)C(=O)O

Key:
[1] = target: T1, Transcriptional coactivator YAP1/Transcriptional enhancer factor TEF-1 (Homo sapiens, UniProt P28347); assay: Inhibition of YAP/ GST-TEAD1 (unknown origin) interaction by surface plasmon resonance assay; format: protein assay
[2] = target: T1, Transcriptional coactivator YAP1/Transcriptional enhancer factor TEF-1; assay: Inhibition of YAP/ GST-TEAD1 interaction in human Bel-7404 cells […]; format: cell-based, Bel7404
[3] = target: Transcriptional coactivator YAP1/Transcriptional enhancer factor TEF-1 (Homo sapiens) (UniProt P46937+P28347); assay: Inhibition of YAP/ GST-TEAD1 (unknown origin) interaction at 50 uM by surface plasmon resonance assay; format: protein assay
Sequence of Transcriptional coactivator YAP1/Transcriptional enhancer factor TEF-1 (Homo sapiens) (P28347 whole entry, looked up): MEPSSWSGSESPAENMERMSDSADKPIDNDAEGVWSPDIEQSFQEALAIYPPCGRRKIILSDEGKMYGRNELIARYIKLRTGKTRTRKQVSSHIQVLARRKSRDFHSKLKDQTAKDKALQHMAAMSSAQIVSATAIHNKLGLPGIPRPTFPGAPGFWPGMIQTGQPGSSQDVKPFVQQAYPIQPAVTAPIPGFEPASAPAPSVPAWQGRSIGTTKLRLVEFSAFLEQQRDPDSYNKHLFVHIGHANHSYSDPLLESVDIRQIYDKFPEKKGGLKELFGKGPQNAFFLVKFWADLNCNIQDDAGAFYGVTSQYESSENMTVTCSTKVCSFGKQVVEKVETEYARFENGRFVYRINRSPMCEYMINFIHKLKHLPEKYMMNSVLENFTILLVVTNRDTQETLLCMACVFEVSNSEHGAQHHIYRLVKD
Sequence of Transcriptional coactivator YAP1/Transcriptional enhancer factor TEF-1 (Homo sapiens) (P46937 whole entry, looked up): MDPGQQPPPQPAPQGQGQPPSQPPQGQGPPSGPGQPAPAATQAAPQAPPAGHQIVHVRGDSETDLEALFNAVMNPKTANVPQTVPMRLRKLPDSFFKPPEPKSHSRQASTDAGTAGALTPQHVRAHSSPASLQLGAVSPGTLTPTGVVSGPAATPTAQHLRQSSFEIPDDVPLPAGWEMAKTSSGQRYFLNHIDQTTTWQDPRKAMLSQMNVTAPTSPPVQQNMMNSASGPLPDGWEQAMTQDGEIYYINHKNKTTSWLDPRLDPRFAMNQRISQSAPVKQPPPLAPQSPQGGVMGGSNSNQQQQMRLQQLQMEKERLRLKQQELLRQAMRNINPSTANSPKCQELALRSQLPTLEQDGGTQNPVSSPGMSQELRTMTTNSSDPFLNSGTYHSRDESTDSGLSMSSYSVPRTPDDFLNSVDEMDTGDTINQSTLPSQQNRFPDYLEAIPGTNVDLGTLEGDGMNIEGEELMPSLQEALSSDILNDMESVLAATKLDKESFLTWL

T1 sequence (P46937 whole entry): as the sequence (P46937 whole entry, looked up) above
T1 sequence (P28347 whole entry): as the sequence (P28347 whole entry, looked up) above

SMILES	IC50 [1]	Kd [2]	inhibition [3]
CSCC[C@H](NC(=O)[C@@H]1CCCN1C(=O)[C@@H](NC(C)=O)C(C)C)C(=O)N[C@H]1CCSSC[C@@H](C(=O)N[C@@H](CCCCN)C(=O)N2CCC[C@H]2C(=O)N2CCC[C@H]2C(=O)N[C@@H](CCC(=O)O)C(N)=O)NC(=O)[C@H](Cc2ccccc2)NC(=O)[C@H](CO)NC(=O)[C@H](CC(=O)O)NC(=O)[C@@H]2CCCN2C(=O)[C@H](CC(C)C)NC(=O)[C@H](CCCCN)NC(=O)[C@H](CCCNC(=N)N)NC(=O)[C@H](CC(C)C)NC1=O	6900 nM		
CSCC[C@H](NC(=O)[C@@H]1CCCN1C(=O)[C@@H](NC(C)=O)C(C)C)C(=O)N[C@H]1CCSSC[C@@H](C(=O)N[C@@H](CCCCN)C(=O)N2CCC[C@H]2C(=O)N2CCC[C@H]2C(=O)N[C@@H](CCC(=O)O)C(N)=O)NC(=O)[C@H](Cc2ccccc2)NC(=O)[C@H](CO)NC(=O)[C@H](C)NC(=O)[C@@H]2CCCN2C(=O)[C@H](CC(C)C)NC(=O)[C@H](CCCCN)NC(=O)[C@H](CCCNC(=N)N)NC(=O)[C@H](CC(C)C)NC1=O	1500 nM		
CSCC[C@H](NC(=O)[C@@H]1CCCN1C(=O)[C@@H](NC(=O)[C@@H](NC(=O)[C@H](CCC(N)=O)NC(=O)[C@@H]1CCCN1C(C)=O)[C@@H](C)O)C(C)C)C(=O)N[C@@H](CCCNC(=N)N)C(=O)N[C@@H](CC(C)C)C(=O)N[C@@H](CCCNC(=N)N)C(=O)N[C@@H](CCCCN)C(=O)N[C@@H](CC(C)C)C(=O)N1CCC[C@H]1C(=O)N[C@@H](C)C(=O)N[C@@H](CO)C(=O)N[C@@H](Cc1ccccc1)C(=O)N[C@@H](Cc1ccccc1)C(=O)N[C@@H](CCCCN)C(=O)N1CCC[C@H]1C(=O)N1CCC[C@H]1C(=O)N[C@@H](CCC(=O)O)C(N)=O (Ac-PQTVPMRLRKLPASFFKPPE-NH2)	25000 nM		83%
CSCC[C@H](NC(=O)[C@@H]1CCCN1C(=O)[C@@H](NC(=O)[C@@H](NC(=O)[C@H](CCC(N)=O)NC(=O)[C@@H]1CCCN1C(C)=O)[C@@H](C)O)C(C)C)C(=O)N[C@@H](CCCNC(=N)N)C(=O)N[C@@H](CC(C)C)C(=O)N[C@@H](CCCNC(=N)N)C(=O)N[C@@H](CCCCN)C(=O)N[C@@H](CC(C)C)C(=O)N1CCC[C@H]1C(=O)N[C@@H](CC(=O)O)C(=O)N[C@@H](CO)C(=O)N[C@@H](Cc1ccccc1)C(=O)N[C@@H](Cc1ccccc1)C(=O)N[C@@H](CCCCN)C(=O)N1CCC[C@H]1C(=O)N1CCC[C@H]1C(=O)N[C@@H](C)C(N)=O (Ac-PQTVPMRLRKLPDSFFKPPA-NH2)	43000 nM		71%
CSCC[C@H](NC(=O)[C@@H]1CCCN1C(=O)[C@@H](NC(C)=O)C(C)C)C(=O)N[C@H]1CSSC[C@@H](C(=O)N[C@@H](CCCCN)C(=O)N2CCC[C@H]2C(=O)N2CCC[C@H]2C(=O)N[C@@H](CCC(=O)O)C(N)=O)NC(=O)[C@H](Cc2ccccc2)NC(=O)[C@H](CO)NC(=O)[C@H](CC(=O)O)NC(=O)[C@@H]2CCCN2C(=O)[C@H](CC(C)C)NC(=O)[C@H](CCCCN)NC(=O)[C@H](CCCNC(=N)N)NC(=O)[C@H](CC(C)C)NC1=O (Ac-VPMCLRKLPDSFCKPPE-NH2; disulfide 4-13)	> 100000 nM		
CSCC[C@H](NC(=O)[C@@H]1CCCN1C(=O)[C@@H](NC(C)=O)C(C)C)C(=O)N[C@H]1CSSCC[C@@H](C(=O)N[C@@H](CCCCN)C(=O)N2CCC[C@H]2C(=O)N2CCC[C@H]2C(=O)N[C@@H](CCC(=O)O)C(N)=O)NC(=O)[C@H](Cc2ccccc2)NC(=O)[C@H](CO)NC(=O)[C@H](CC(=O)O)NC(=O)[C@@H]2CCCN2C(=O)[C@H](CC(C)C)NC(=O)[C@H](CCCCN)NC(=O)[C@H](CCCNC(=N)N)NC(=O)[C@H](CC(C)C)NC1=O (Ac-VPMCLRKLPDSF[hCys]KPPE-NH2; disulfide 4-13)	85000 nM		
CSCC[C@H](NC(=O)[C@@H]1CCCN1C(=O)[C@@H](NC(C)=O)C(C)C)C(=O)N[C@H]1CCSSCC[C@@H](C(=O)N[C@@H](CCCCN)C(=O)N2CCC[C@H]2C(=O)N2CCC[C@H]2C(=O)N[C@@H](CCC(=O)O)C(N)=O)NC(=O)[C@H](Cc2ccccc2)NC(=O)[C@H](CO)NC(=O)[C@H](CC(=O)O)NC(=O)[C@@H]2CCCN2C(=O)[C@H](CC(C)C)NC(=O)[C@H](CCCCN)NC(=O)[C@H](CCCNC(=N)N)NC(=O)[C@H](CC(C)C)NC1=O (Ac-VPM[hCys]LRKLPDSF[hCys]KPPE-NH2; disulfide 4-13)	> 100000 nM		
CCCC[C@@H]1NC(=O)[C@H](CCCCN)NC(=O)[C@H](CCCNC(=N)N)NC(=O)[C@H](CC(C)C)NC(=O)[C@@H](NC(=O)[C@H](CCSC)NC(=O)[C@@H]2CCCN2C(=O)[C@@H](NC(C)=O)C(C)C)CCSSC[C@@H](C(=O)N[C@@H](CCCCN)C(=O)N2CCC[C@H]2C(=O)N2CCC[C@H]2C(=O)N[C@@H](CCC(=O)O)C(N)=O)NC(=O)[C@H](Cc2ccccc2)NC(=O)[C@H](CO)NC(=O)[C@H](CC(=O)O)NC(=O)[C@@H]2CCCN2C1=O (Ac-VPM[hCys]LRK[Nle]PDSFCKPPE-NH2; disulfide 4-13)	1700 nM	211 nM	

Compounds with a lower IC50 [1], results first:

IC50 [1]	Kd [2]	inhibition [3]	SMILES
530 nM			CCCC[C@@H]1NC(=O)[C@H](CCCCN)NC(=O)[C@H](CCCNC(=N)N)NC(=O)[C@H](CC(C)C)NC(=O)[C@@H](NC(=O)[C@H](Cc2ccc(Cl)cc2)NC(=O)[C@@H]2CCCN2C(=O)[C@@H](NC(C)=O)C(C)C)CCSSC[C@@H](C(=O)N[C@@H](CCCCN)C(=O)N2CCC[C@H]2C(=O)N2CCC[C@H]2C(=O)N[C@@H](CCC(=O)O)C(N)=O)NC(=O)[C@H](Cc2ccccc2)NC(=O)[C@H](CO)NC(=O)[C@H](C)NC(=O)[C@@H]2CCCN2C1=O
380 nM			CCCC[C@@H]1NC(=O)[C@H](CCCCN)NC(=O)[C@H](CCCNC(=N)N)NC(=O)[C@H](CC(C)C)NC(=O)[C@@H](NC(=O)[C@H](Cc2ccccc2Cl)NC(=O)[C@@H]2CCCN2C(=O)[C@@H](NC(C)=O)C(C)C)CCSSC[C@@H](C(=O)N[C@@H](CCCCN)C(=O)N2CCC[C@H]2C(=O)N2CCC[C@H]2C(=O)N[C@@H](CCC(=O)O)C(N)=O)NC(=O)[C@H](Cc2ccccc2)NC(=O)[C@H](CO)NC(=O)[C@H](C)NC(=O)[C@@H]2CCCN2C1=O
370 nM			CCCCCC[C@@H]1NC(=O)[C@H](CCCCN)NC(=O)[C@H](CCCNC(=N)N)NC(=O)[C@H](CC(C)C)NC(=O)[C@@H](NC(=O)[C@H](CCSC)NC(=O)[C@@H]2CCCN2C(=O)[C@@H](NC(C)=O)C(C)C)CCSSC[C@@H](C(=O)N[C@@H](CCCCN)C(=O)N2CCC[C@H]2C(=O)N2CCC[C@H]2C(=O)N[C@@H](CCC(=O)O)C(N)=O)NC(=O)[C@H](Cc2ccccc2)NC(=O)[C@H](CO)NC(=O)[C@H](C)NC(=O)[C@@H]2CCCN2C1=O
350 nM			CCCC[C@@H]1NC(=O)[C@H](CCCCN)NC(=O)[C@H](CCCNC(=N)N)NC(=O)[C@H](CC(C)C)NC(=O)[C@@H](NC(=O)[C@H](Cc2ccccc2)NC(=O)[C@@H]2CCCN2C(=O)[C@@H](NC(C)=O)C(C)C)CCSSC[C@@H](C(=O)N[C@@H](CCCCN)C(=O)N2CCC[C@H]2C(=O)N2CCC[C@H]2C(=O)N[C@@H](CCC(=O)O)C(N)=O)NC(=O)[C@H](Cc2ccccc2)NC(=O)[C@H](CO)NC(=O)[C@H](C)NC(=O)[C@@H]2CCCN2C1=O
340 nM			CCCC[C@H](NC(=O)[C@@H]1CCCN1C(=O)[C@@H](NC(C)=O)C(C)C)C(=O)N[C@H]1CCSSC[C@@H](C(=O)N[C@@H](CCCCN)C(=O)N2CCC[C@H]2C(=O)N2CCC[C@H]2C(=O)N[C@@H](CCC(=O)O)C(N)=O)NC(=O)[C@H](Cc2ccccc2)NC(=O)[C@H](CO)NC(=O)[C@H](C)NC(=O)[C@@H]2CCCN2C(=O)[C@H](CCCC)NC(=O)[C@H](CCCCN)NC(=O)[C@H](CCCNC(=N)N)NC(=O)[C@H](CC(C)C)NC1=O
310 nM			CSCC[C@H](NC(=O)[C@@H]1CCCN1C(=O)[C@@H](NC(C)=O)C(C)C)C(=O)N[C@H]1CCSSC[C@@H](C(=O)N[C@@H](CCCCN)C(=O)N2CCC[C@H]2C(=O)N2CCC[C@H]2C(=O)N[C@@H](CCC(=O)O)C(N)=O)NC(=O)[C@H](Cc2ccccc2)NC(=O)[C@H](CO)NC(=O)[C@H](C)NC(=O)[C@@H]2CCCN2C(=O)[C@H](CCCC(C)C)NC(=O)[C@H](CCCCN)NC(=O)[C@H](CCCNC(=N)N)NC(=O)[C@H](CC(C)C)NC1=O
150 nM	39 nM		CCCC[C@@H]1NC(=O)[C@H](CCCCN)NC(=O)[C@H](CCCNC(=N)N)NC(=O)[C@H](CC(C)C)NC(=O)[C@@H](NC(=O)[C@H](CCSC)NC(=O)[C@@H]2CCCN2C(=O)[C@@H](NC(C)=O)C(C)C)CCSSC[C@@H](C(=O)N[C@@H](CCCCN)C(=O)N2CCC[C@H]2C(=O)N2CCC[C@H]2C(=O)N[C@@H](CCC(=O)O)C(N)=O)NC(=O)[C@H](Cc2ccccc2)NC(=O)[C@H](CO)NC(=O)[C@H](C)NC(=O)[C@@H]2CCCN2C1=O
75 nM			CCCC[C@@H]1NC(=O)[C@H](CCCCN)NC(=O)[C@H](CCCNC(=N)N)NC(=O)[C@H](CC(C)C)NC(=O)[C@@H](NC(=O)[C@H](CCSC)NC(=O)[C@@H]2CCCN2C(=O)[C@@H](NC(C)=O)C(C)C)CCSSC[C@@H](C(=O)N[C@@H](CCCCN)C(=O)N2CCC[C@H]2C(=O)N2CCC[C@H]2C(=O)N[C@@H](CCC(=O)O)C(N)=O)NC(=O)[C@H](Cc2ccc(F)cc2)NC(=O)[C@H](CO)NC(=O)[C@H](C)NC(=O)[C@@H]2CCCN2C1=O
42 nM	18 nM		CCCCC[C@@H]1NC(=O)[C@H](CCCCN)NC(=O)[C@H](CCCNC(=N)N)NC(=O)[C@H](CC(C)C)NC(=O)[C@@H](NC(=O)[C@H](CCSC)NC(=O)[C@@H]2CCCN2C(=O)[C@@H](NC(C)=O)C(C)C)CCSSC[C@@H](C(=O)N[C@@H](CCCCN)C(=O)N2CCC[C@H]2C(=O)N2CCC[C@H]2C(=O)N[C@@H](CCC(=O)O)C(N)=O)NC(=O)[C@H](Cc2ccccc2)NC(=O)[C@H](CO)NC(=O)[C@H](C)NC(=O)[C@@H]2CCCN2C1=O
25 nM	15 nM		CCCC[C@@H]1NC(=O)[C@H](CCCCN)NC(=O)[C@H](CCCNC(=N)N)NC(=O)[C@H](CC(C)C)NC(=O)[C@@H](NC(=O)[C@H](Cc2cccc(Cl)c2)NC(=O)[C@@H]2CCCN2C(=O)[C@@H](NC(C)=O)C(C)C)CCSSC[C@@H](C(=O)N[C@@H](CCCCN)C(=O)N2CCC[C@H]2C(=O)N2CCC[C@H]2C(=O)N[C@@H](CCC(=O)O)C(N)=O)NC(=O)[C@H](Cc2ccccc2)NC(=O)[C@H](CO)NC(=O)[C@H](C)NC(=O)[C@@H]2CCCN2C1=O
